The target in this experiment is T1, human PAD4 (Homo sapiens, UniProt Q9UM07).
T1 construct: human PAD4 (NM_012387), A2P663, was PCR amplified; His-SUMO (N, cleaved yes); made in house; host or cells: E. coli BL21(DE3)
Description: In vitro PAD4 BAEE biochemical assay. Particulars: human PAD4, BAEE substrate; 5 nM PAD4, 2 mM calcium chloride, 3 mM BAEE; geometric mean of multiple experiments. In outline: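 Ammonia release from BAEE deimination monitored by o-phthalaldehyde amine coupling (1 h, 25 °C) after EDTA stop. Final conditions: 5 nM tag-free recombinant human PAD4 (E. coli), 2 mM CaCl2, 3 mM BAEE, pH 7.6 MOPS with DTT; 30 min compound preincubation, then 2 h reaction at 25 °C.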

T1 sequence (Q9UM07 2-663): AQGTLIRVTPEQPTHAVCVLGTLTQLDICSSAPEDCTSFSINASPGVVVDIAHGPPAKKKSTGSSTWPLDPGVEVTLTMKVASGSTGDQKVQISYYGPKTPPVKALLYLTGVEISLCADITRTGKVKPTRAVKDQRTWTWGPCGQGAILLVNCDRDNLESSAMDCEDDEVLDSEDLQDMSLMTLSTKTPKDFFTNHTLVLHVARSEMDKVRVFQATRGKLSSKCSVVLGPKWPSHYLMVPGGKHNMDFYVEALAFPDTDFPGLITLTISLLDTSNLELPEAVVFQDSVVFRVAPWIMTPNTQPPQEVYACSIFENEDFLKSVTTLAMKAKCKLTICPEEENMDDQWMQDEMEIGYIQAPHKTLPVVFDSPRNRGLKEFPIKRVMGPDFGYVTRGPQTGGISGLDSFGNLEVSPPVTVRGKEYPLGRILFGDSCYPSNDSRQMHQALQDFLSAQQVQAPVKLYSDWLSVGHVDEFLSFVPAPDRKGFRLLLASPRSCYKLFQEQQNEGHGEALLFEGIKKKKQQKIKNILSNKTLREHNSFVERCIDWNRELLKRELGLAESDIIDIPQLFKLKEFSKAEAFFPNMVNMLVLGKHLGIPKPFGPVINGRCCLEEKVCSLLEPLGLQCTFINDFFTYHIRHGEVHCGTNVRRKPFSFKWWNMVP

The term IC50 denotes the concentration that gives 50% inhibition. Turning to `COc1cc(C(=O)N2C[C@H]3CC(F)[C@@H]2[C@@H]3N)cc2nc(-c3cc4ccc(N(C(F)F)S(C)(=O)=O)nc4n3CC3CC3)c(C)n12` (stereo partly drawn) [Example 361, N-[2-[7-[(1S,4R,7R)-7-amino-6-fluoro-2-azabicyclo[2.2.1]heptane-2-carbonyl]-5-methoxy-3-methyl-imidazo[1,2-a]pyridin-2-yl]-1-(cyclopropylmethyl)pyrrolo [2,3-b]pyridin-6-yl]-N-(difluoromethyl) methanesulfonamide], the IC50 amounted to 258 nM.

Consider `COc1cc(C(=O)N2CC[C@H]3C[C@@]3(N)C2)cc2nc(-c3cc4ccc(N(C(F)F)S(C)(=O)=O)nc4n3CC3CC3)c(C)n12` [Example 362, ~{N}-[2-[7-[(1~{S}, 6~{S})-1-amino-3-azabicyclo[4.1.0]heptane-3-carbonyl]-5-methoxy-3-methylimidazo [1,2-a]pyridin-2-yl]-1-(cyclopropylmethyl)pyrrolo [2,3-b]pyridin-6-yl]-~{N}-(difluoromethyl) methanesulfonamide], for which the IC50 came out at 248 nM.

As for `COc1cc(C(=O)N2CC[C@@H]3C[C@]3(N)C2)cc2nc(-c3cc4ccc(N(C(F)F)S(C)(=O)=O)nc4n3CC3CC3)c(C)n12` [Example 363, ~{N}-[2-[7-[(1~{R},6~{R})-1-amino-3-azabicyclo[4.1.0]heptane-3-carbonyl]-5-methoxy-3-methylimidazo[1,2-a]pyridin-2-yl]-1-(cyclopropylmethyl)pyrrolo [2,3-b]pyridin-6-yl]-~{N}-(difluoromethyl) methanesulfonamide], the IC50 stood at 1960 nM.

Consider `COc1cc(C(=O)N2CCC3CC3(N)C2)cc2nc(-c3cc4ccc(N(C(F)F)S(C)(=O)=O)nc4n3CC3CC3)c(C)n12` (stereo not shown) [Example 365, ~{N}-[2-[7-(1-amino-3-azabicyclo[4.1.0]heptane-3-carbonyl)-5-methoxy-3-methylimidazo [1,2-a]pyridin-2-yl]-1-(cyclopropylmethyl)pyrrolo [2,3-b]pyridin-6-yl]-~{N}-(difluoromethyl) methanesulfonamide], for which the half-maximal inhibitory concentration (IC50) is 403 nM.

On to `[2H]C([2H])([2H])N(c1ccc2cc(-c3nc4cc(C(=O)N5C[C@H]6CC[C@@H]5[C@@H]6N)cc(OC)n4c3C)n(CC)c2n1)S(C)(=O)=O` [Example 366, N-[2-[7-[(1R,4R,7R)-7-amino-2-azabicyclo[2.2.1]heptane-2-carbonyl]-5-methoxy-3-methyl-imidazo[1,2-a]pyridin-2-yl]-1-ethyl-pyrrolo [2,3-b]pyridin-6-yl]-N-(trideuteriomethyl) methanesulfonamide], for which the IC50 is 499 nM.

Turning to `COc1cc(C(=O)N2CC3(CNC3)C2)cc2nc(-c3cc4ccc(N(C(F)F)S(C)(=O)=O)nc4n3CC3CC3)c(C)n12` [Example 367, ~{N}-[1-(cyclopropylmethyl)-2-[7-(2,6-diazaspiro[3.3]heptane-2-carbonyl)-5-methoxy-3-methylimidazo[1,2-a]pyridin-2-yl]pyrrolo[2,3-b]pyridin-6-yl]-~{N}-(difluoromethyl) methanesulfonamide], the IC50 amounted to 5310 nM.

`COc1cc(C(=O)N2C[C@H]3CC[C@@H]2[C@@H](N)C3)cc2nc(-c3cc4ccc(N(C(F)F)S(C)(=O)=O)nc4n3CC3CC3)c(C)n12` [Example 368, ~{N}-[2-[7-[(1~{R},4~{S}, 6~{S})-6-amino-2-azabicyclo[2.2.2]octane-2-carbonyl]-5-methoxy-3-methylimidazo[1,2-a]pyridin-2-yl]-1-(cyclopropylmethyl)pyrrolo [2,3-b]pyridin-6-yl]-~{N}-(difluoromethyl) methanesulfonamide]: the IC50 was 43600 nM.

For `CCC1CC2CN(C(=O)c3cc(OC)n4c(C)c(-c5cc6ccc(N(C(F)F)S(C)(=O)=O)nc6n5CC5CC5)nc4c3)C1C2N` (stereo not shown) [Example 370], the 50% inhibitory concentration (IC50) was determined as 17100 nM.

As to `CCOC1C[C@@H]2CN(C(=O)c3cc(OC)n4c(C)c(-c5cc6ccc(N(C(F)F)S(C)(=O)=O)nc6n5CC5CC5)nc4c3)[C@H]1[C@@H]2N` (stereo partly drawn) [Example 371, N-[2-[7-[(1S,4R,7R)-7-amino-6-ethoxy-2-azabicyclo[2.2.1]heptane-2-carbonyl]-5-methoxy-3-methyl-imidazo[1,2-a]pyridin-2-yl]-1-(cyclopropylmethyl)pyrrolo [2,3-b]pyridin-6-yl]-N-(difluoromethyl) methanesulfonamide], the IC50 came to 10600 nM.

`COc1cc(C(=O)N2C[C@H]3C[C@H](OC)[C@@H]2[C@@H]3N)cc2nc(-c3cc4ccc(N(C(F)F)S(C)(=O)=O)nc4n3CC3CC3)c(C)n12` [Example 372, N-[2-[7-[(1S,4R,6S,7R)-7-amino-6-methoxy-2-azabicyclo[2.2.1]heptane-2-carbonyl]-5-methoxy-3-methyl-imidazo [1,2-a]pyridin-2-yl]-1-(cyclopropylmethyl)pyrrolo [2,3-b]pyridin-6-yl]-N-(difluoromethyl) methanesulfonamide]: the IC50 stood at 2000 nM.

In the case of `COc1cc(C(=O)N2C[C@@H]3CC[C@H]2[C@@H](N)C3)cc2nc(-c3cc4ccc(N(C(F)F)S(C)(=O)=O)nc4n3CC3CC3)c(C)n12` [Example 375, ~{N}-[2-[7-[(1~{S},4~{R}, 6~{S})-6-amino-2-azabicyclo[2.2.2]octane-2-carbonyl]-5-methoxy-3-methylimidazo[1,2-a]pyridin-2-yl]-1-(cyclopropylmethyl)pyrrolo [2,3-b]pyridin-6-yl]-~{N}-(difluoromethyl) methanesulfonamide], the IC50 is 2730 nM.

With `COc1cc(C(=O)N2C[C@H]3CC[C@@H]2[C@H](N)C3)cc2nc(-c3cc4ccc(N(C(F)F)S(C)(=O)=O)nc4n3CC3CC3)c(C)n12` [Example 376, ~{N}-[2-[7-[(1~{R},4~{S}, 6~{R})-6-amino-2-azabicyclo[2.2.2]octane-2-carbonyl]-5-methoxy-3-methylimidazo[1,2-a]pyridin-2-yl]-1-(cyclopropylmethyl)pyrrolo [2,3-b]pyridin-6-yl]-~{N}-(difluoromethyl) methanesulfonamide], the IC50 was 404 nM.

In the case of `COc1cc(C(=O)N2C[C@@H]3CC[C@H]2[C@H](N)C3)cc2nc(-c3cc4ccc(N(C(F)F)S(C)(=O)=O)nc4n3CC3CC3)c(C)n12` [Example 377, ~{N}-[2-[7-[(1~{R},4~{S}, 6~{R})-6-amino-2-azabicyclo[2.2.2]octane-2-carbonyl]-5-methoxy-3-methylimidazo[1,2-a]pyridin-2-yl]-1-(cyclopropylmethyl)pyrrolo [2,3-b]pyridin-6-yl]-~{N}-(difluoromethyl) methanesulfonamide], the IC50 is 18200 nM.

Turning to `COc1cc(C(=O)N2C[C@H]3C[C@H](O)[C@@H]2[C@@H]3N)cc2nc(-c3cc4ccc(N(C(F)F)S(C)(=O)=O)nc4n3CC3CC3)c(C)n12` [Example 378, N-[2-[7-[(1S,4R,6S,7R)-7-amino-6-hydroxy-2-azabicyclo[2.2.1]heptane-2-carbonyl]-5-methoxy-3-methyl-imidazo [1,2-a]pyridin-2-yl]-1-(cyclopropylmethyl)pyrrolo [2,3-b]pyridin-6-yl]-N-(difluoromethyl) methanesulfonamide], the IC50 came to 341 nM.

For `COc1cc(C(=O)N2CCC3(CNC3)C2)cc2nc(-c3cc4ccc(N(C(F)F)S(C)(=O)=O)nc4n3CC3CC3)c(C)n12` [Example 380, ~{N}-[1-(cyclopropylmethyl)-2-[7-(2,6-diazaspiro[3.4]octane-6-carbonyl)-5-methoxy-3-methylimidazo[1,2-a]pyridin-2-yl]pyrrolo[2,3-b]pyridin-6-yl]-~{N}-(difluoromethyl) methanesulfonamide], the IC50 is 24700 nM.

Turning to `COc1cc(C(=O)N2C[C@H]3CC[C@@H]2[C@H](N)C3)cc2nc(-c3cc4ccc(N(C(F)F)S(C)(=O)=O)nc4n3CC3CC3)c(C)n12` [Example 381, ~{N}-[2-[7-[(1~{R},4~{S}, 6~{R})-6-amino-2-azabicyclo[2.2.2]octane-2-carbonyl]-5-methoxy-3-methylimidazo[1,2-a]pyridin-2-yl]-1-(cyclopropylmethyl)pyrrolo [2,3-b]pyridin-6-yl]-~{N}-(difluoromethyl) methanesulfonamide], the IC50 was 538 nM.

As for `COc1cc(C(=O)N2[C@@H]3CC[C@@H](N)[C@H]2CC3)cc2nc(-c3cc4ccc(N(C(F)F)S(C)(=O)=O)nc4n3CC3CC3)c(C3CC3)n12` [Example 382, ~{N}-[2-[7-[(1~{R},2~{R}, 5~{R})-2-amino-8-azabicyclo[3.2.1]octane-8-carbonyl]-3-cyclopropyl-5-methoxyimidazo[1,2-a]pyridin-2-yl]-1-(cyclopropylmethyl)pyrrolo [2,3-b]pyridin-6-yl]-~{N}-(difluoromethyl) methanesulfonamide], the IC50 was found to be 204 nM.

For `COc1cc(C(=O)N2CC[C@H]3OCCN[C@H]3C2)cc2nc(-c3cc4ccc(N(C(F)F)S(C)(=O)=O)nc4n3CC3CC3)c(C)n12` [Example 383, ~{N}-[2-[7-[(4~{a}~{S},8~{a}~{R})-2,3,4,4~{a},5,7,8,8~{a}-octahydropyrido[4,3-b][1,4]oxazine-6-carbonyl]-5-methoxy-3-methylimidazo[1,2-a]pyridin-2-yl]-1-(cyclopropylmethyl)pyrrolo[2,3-b]pyridin-6-yl]-~{N}-(difluoromethyl) methanesulfonamide], the IC50 worked out at 447 nM.

For `COc1cc(C(=O)N2CC[C@H]3OCCN[C@H]3C2)cc2nc(-c3cc4ccc(N(C(F)F)S(C)(=O)=O)nc4n3CC3CC3)c(C3CC3)n12` [Example 384, ~{N}-[2-[7-[(4~{a}~{S},8~{a}~{R})-2,3,4,4~{a},5,7,8,8~{a}-octahydropyrido[4,3-b][1,4]oxazine-6-carbonyl]-3-cyclopropyl-5-methoxyimidazo[1,2-a]pyridin-2-yl]-1-(cyclopropylmethyl)pyrrolo [2,3-b]pyridin-6-yl]-~{N}-(difluoromethyl) methanesulfonamide], the IC50 came out at 888 nM.

Source of the values: patent publication US12240862B2, “Inhibitors of peptidylarginine deiminases” (Gilead Sciences, Inc., priority 2020, dated 2025).
